Among the test systems are CCRF-CEM leukemia; HCT-15 colon; HOP-62 NSCLC; HS 578T breast; MCF7 breast; MOLT-4 leukemia; NCI-H226 lung; NCI-H23 lung; PC-3 prostate; SF-295 CNS; SK-MEL-2 melanoma; SK-MEL-28 melanoma; SN12C renal; SNB-75 CNS; SR leukemia; SW-620 colon; UACC-257 melanoma; UO-31 renal.
Holding throughout (assay): growth of human tumour cells (NCI), 48 h

Each structure is given as a SMILES string.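 Results reflect a 48-hour exposure of cells in 96-well plates to compound at five concentrations. TGI is the concentration that stops growth completely.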

Take `CC(C)OC(=O)c1ccc(NCC2=CC(=O)C=CC2=O)cc1`: the TGI in the test with CCRF-CEM leukemia was 6.48 µM; in the test on HCT-15 colon, 25.5 µM; in the test with HOP-62 NSCLC, over 100 µM; in the test on HS 578T breast, 65.4 µM; with MCF7 breast it was 27.3 µM; in the test with MOLT-4 leukemia it was 6.14 µM. The TGI in the test on NCI-H226 lung was over 100 µM; in the test with NCI-H23 lung, 29 µM; in the test with PC-3 prostate it was 25.7 µM; in the test on SF-295 CNS, over 83.1 µM; in the test with SK-MEL-2 melanoma it was 31.5 µM; with SK-MEL-28 melanoma, 33 µM. Also, the TGI stood at 26.1 µM with SN12C renal; 76.3 µM in the test on SNB-75 CNS; 8.37 µM with SR leukemia; 26.5 µM in the test with SW-620 colon; 27.2 µM in the test on UACC-257 melanoma; 21.8 µM with UO-31 renal.

With `COC(=O)C(=O)C(C(=O)C(=O)Nc1ccccc1C(N)=O)c1nc2ccc(Cl)cc2[nH]c1=O` (centres undefined), the TGI in the test on CCRF-CEM leukemia, with HCT-15 colon, with HS 578T breast, in the test on MCF7 breast, with MOLT-4 leukemia and in the test on NCI-H226 lung was over 100 µM each time. In addition, the TGI with NCI-H23 lung, with PC-3 prostate, in the test on SF-295 CNS, in the test with SK-MEL-2 melanoma, in the test on SK-MEL-28 melanoma and in the test on SN12C renal was over 100 µM each time. Further, the TGI in the test on SNB-75 CNS, in the test on SR leukemia, in the test with SW-620 colon, with UACC-257 melanoma and with UO-31 renal was over 100 µM in each case.

Turning to `O=C(CSc1ncccn1)N/N=C/c1ccccc1OCc1ccccc1`, the TGI in the test with CCRF-CEM leukemia stood at 57.9 µM; with HCT-15 colon it was 65.1 µM; in the test on HOP-62 NSCLC it was 83.1 µM; with HS 578T breast, 95.3 µM; in the test with MCF7 breast, 43.9 µM; in the test with MOLT-4 leukemia, 65.8 µM. Moreover, the TGI in the test with NCI-H226 lung is 55.1 µM; in the test with NCI-H23 lung it was over 100 µM; with PC-3 prostate, over 100 µM; in the test on SF-295 CNS, 50.9 µM; in the test with SK-MEL-2 melanoma, 47.6 µM; in the test with SK-MEL-28 melanoma, over 100 µM. Also, the TGI in the test with SN12C renal was 72.6 µM; in the test on SNB-75 CNS it was 67.7 µM; in the test on SR leukemia it was 29.5 µM; in the test on SW-620 colon, over 100 µM; with UACC-257 melanoma it was 53.5 µM; with UO-31 renal it was over 100 µM.

For the compound `O=C1CSC(c2ccccc2)N1c1nc2cc3sc(N4C(=O)CSC4c4ccccc4)nc3cc2s1` (centres undefined), the TGI in the test with CCRF-CEM leukemia is over 84.1 µM; with HCT-15 colon it was over 100 µM; in the test on HOP-62 NSCLC, over 100 µM; in the test with HS 578T breast it was over 100 µM; in the test with MCF7 breast, over 100 µM; in the test with MOLT-4 leukemia it was over 100 µM. In addition, the TGI in the test on NCI-H226 lung was over 96.6 µM; with NCI-H23 lung it was over 100 µM; with PC-3 prostate, over 100 µM; with SF-295 CNS, over 100 µM; with SK-MEL-2 melanoma it was over 100 µM; in the test on SK-MEL-28 melanoma, over 100 µM. The TGI with SN12C renal is over 100 µM; in the test on SNB-75 CNS, over 92.3 µM; in the test with SR leukemia it was over 100 µM; with SW-620 colon, over 100 µM; with UACC-257 melanoma it was over 100 µM; in the test on UO-31 renal, over 100 µM.

In the case of `COC(=O)c1ccccc1/C=C1\Cc2c(C)c3c(c(C)c2C1=O)CCC3`, the TGI in the test on CCRF-CEM leukemia was over 100 µM; in the test on HCT-15 colon it was over 100 µM; in the test with HOP-62 NSCLC it was over 100 µM; with HS 578T breast, 95.6 µM; with MCF7 breast, over 100 µM; in the test with MOLT-4 leukemia, over 100 µM. The TGI in the test on NCI-H226 lung, in the test on NCI-H23 lung, with PC-3 prostate, in the test with SF-295 CNS, in the test with SK-MEL-2 melanoma and in the test with SK-MEL-28 melanoma was over 100 µM in each case. Also, the TGI in the test with SN12C renal, with SNB-75 CNS, in the test with SR leukemia, in the test on SW-620 colon, in the test with UACC-257 melanoma and with UO-31 renal was over 100 µM in each case.

Take `CC(=O)OCC(OC(C)=O)C1C[C@H]2O[C@@H]3[C@H](C[C@H]2O1)O[C@@]1(C[C@@H]3C)C[C@H](C)[C@@H]2O[C@]3(C[C@@H]2O1)C[C@H]1O[C@H]2[C@H](C)[C@H]4OC(=O)C[C@H]5CC[C@@H]6OC7[C@H]8O[C@]9(CC[C@H]%10CC(=O)[C@H](CC[C@H]%11C[C@@H](C)C(=O)C(C[C@@H]4O[C@H]2C[C@H]1O3)O%11)O%10)CC8O[C@@H]7[C@@H](O9)[C@H]6O5` (some centres undefined): the TGI in the test with CCRF-CEM leukemia is over 1 µM; in the test on HCT-15 colon, over 0.219 µM; with HOP-62 NSCLC it was over 1 µM; with HS 578T breast it was 0.00604 µM; in the test with MCF7 breast, over 1 µM; in the test on MOLT-4 leukemia, over 1 µM. In addition, the TGI with NCI-H226 lung was 0.0731 µM; with PC-3 prostate it was over 1 µM; in the test on SK-MEL-2 melanoma, over 1 µM; with SK-MEL-28 melanoma, over 1 µM; in the test on SN12C renal, over 1 µM; with SNB-75 CNS, over 1 µM. Also, the TGI in the test on SR leukemia, in the test with SW-620 colon and in the test on UO-31 renal was over 1 µM throughout.

For the compound `O=C(CC(O)(C(F)(F)F)C(F)(F)F)C(c1ccccc1)C(O)(C(F)(F)F)C(F)(F)F` (centres undefined), the TGI in the test with CCRF-CEM leukemia was over 100 µM; in the test on HCT-15 colon, over 100 µM; with HS 578T breast, 41.8 µM; in the test on MCF7 breast, over 100 µM; in the test on MOLT-4 leukemia, over 100 µM; with NCI-H226 lung, over 100 µM. For the same compound, the TGI with NCI-H23 lung is over 100 µM; in the test on PC-3 prostate, over 100 µM; in the test on SF-295 CNS, over 100 µM; in the test with SK-MEL-2 melanoma, over 100 µM; in the test on SK-MEL-28 melanoma, over 100 µM; in the test on SNB-75 CNS it was 27.2 µM. Moreover, the TGI with SR leukemia, in the test with SW-620 colon, with UACC-257 melanoma and in the test on UO-31 renal was over 100 µM each time.

For `Cc1c(N=Nc2ccccc2)c(-c2ccccc2)n(C2OC(CO)C(O)C(O)C2O)c(=S)c1C#N` (centres undefined), the TGI is 25.5 µM in the test on HCT-15 colon; 23.2 µM with HOP-62 NSCLC; over 100 µM with HS 578T breast; 17.1 µM with MCF7 breast; 24.5 µM with MOLT-4 leukemia; 28.5 µM with NCI-H226 lung. Besides, the TGI in the test with NCI-H23 lung came to 16.2 µM; with PC-3 prostate, 15.6 µM; in the test with SF-295 CNS it was 55.8 µM; in the test with SK-MEL-2 melanoma, 21.8 µM; in the test on SK-MEL-28 melanoma, 19.6 µM; in the test on SN12C renal, 28.5 µM. Moreover, the TGI in the test on SNB-75 CNS is over 100 µM; in the test with SR leukemia it was over 100 µM; in the test on SW-620 colon it was 24.2 µM; in the test with UO-31 renal it was 39.4 µM.

`CN1CCCC2C(c3ccccc3)C(C3=NCCCC3)C(c3ccccc3)CC21` (centres undefined): the TGI was over 100 µM with CCRF-CEM leukemia; over 100 µM with HCT-15 colon; over 100 µM in the test with HOP-62 NSCLC; 96.7 µM with HS 578T breast; over 100 µM in the test with MCF7 breast; over 100 µM in the test with MOLT-4 leukemia. In addition, the TGI in the test on NCI-H226 lung is over 100 µM; with NCI-H23 lung, over 100 µM; with PC-3 prostate, over 100 µM; in the test on SF-295 CNS, over 100 µM; in the test on SK-MEL-2 melanoma, over 100 µM; in the test with SK-MEL-28 melanoma, 36.2 µM. Moreover, the TGI with SN12C renal is over 100 µM; in the test with SNB-75 CNS, 38 µM; in the test on SR leukemia, over 100 µM; in the test with SW-620 colon, over 100 µM; with UACC-257 melanoma, 35 µM.

As for `COc1cccc(Nc2nc(C)c([N+](=O)[O-])c(Nc3cccc(OC)c3)n2)c1`, the TGI in the test on HCT-15 colon was over 100 µM; with HOP-62 NSCLC, 46.2 µM; in the test with HS 578T breast it was over 100 µM; in the test on MCF7 breast it was over 100 µM; with MOLT-4 leukemia, 30.2 µM; in the test on NCI-H226 lung it was over 100 µM. Further, the TGI in the test on NCI-H23 lung was over 100 µM; in the test on PC-3 prostate, over 100 µM; with SF-295 CNS it was 47.9 µM; with SK-MEL-2 melanoma, 96.5 µM; in the test with SK-MEL-28 melanoma it was over 100 µM; in the test on SN12C renal, over 100 µM. In addition, the TGI in the test on SNB-75 CNS is 4.73 µM; with SR leukemia it was over 100 µM; with SW-620 colon, over 100 µM; in the test with UACC-257 melanoma it was 46.7 µM; with UO-31 renal, over 100 µM.

For `O=C(CP(=O)(c1ccccc1)c1ccccc1)c1cccc(C(=O)CP(=O)(c2ccccc2)c2ccccc2)c1`, the TGI in the test with CCRF-CEM leukemia was over 100 µM; with HCT-15 colon it was over 100 µM; in the test with HOP-62 NSCLC, over 100 µM; with HS 578T breast, 57.9 µM; in the test on MCF7 breast it was over 100 µM; with MOLT-4 leukemia, over 100 µM. Moreover, the TGI in the test on NCI-H226 lung was over 100 µM; in the test with PC-3 prostate it was over 100 µM; with SF-295 CNS, 30 µM; in the test on SK-MEL-2 melanoma, over 100 µM; with SK-MEL-28 melanoma, over 100 µM; in the test with SN12C renal, over 100 µM. The TGI was 37.6 µM in the test with SNB-75 CNS; over 100 µM in the test with SR leukemia; over 100 µM in the test with SW-620 colon; over 100 µM in the test with UACC-257 melanoma; over 100 µM in the test on UO-31 renal.

Take `COc1cc(C(=O)NNC(=O)c2cc(Br)ccc2NC(=O)c2cccs2)cc(OC)c1OC`: the TGI in the test on CCRF-CEM leukemia was over 100 µM; in the test on HCT-15 colon it was 62.3 µM; with HOP-62 NSCLC, 42.2 µM; in the test with HS 578T breast it was 62.1 µM; in the test on MCF7 breast, 52.1 µM; with MOLT-4 leukemia, over 100 µM. The TGI in the test with NCI-H226 lung is 36.5 µM; in the test with NCI-H23 lung, 57.1 µM; in the test with PC-3 prostate, over 100 µM; in the test with SF-295 CNS, 48.9 µM; with SK-MEL-2 melanoma it was 44.9 µM; in the test with SN12C renal, 60.3 µM. The TGI is 24.6 µM in the test on SNB-75 CNS; over 100 µM in the test with SR leukemia; over 100 µM in the test on SW-620 colon; 56.9 µM in the test with UACC-257 melanoma; 50.2 µM in the test on UO-31 renal.

(Values after PubChem BioAssay (NCI).)
